#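 96-well plates; 48 h exposure; 5 concentrations. Endpoints by linear interpolation between flanking doses. Not reached: highest tested concentration assigned. GI50 marks 50% less growth. TGI marks complete inhibition of growth.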
# Key:
# Experiment in all cases: growth of human tumour cells (NCI), 48 h
# NCI-H23 lung = system: NCI-H23 lung
# MOLT-4 leukemia = system: MOLT-4 leukemia
# SF-539 CNS = system: SF-539 CNS
# HT29 colon = system: HT29 colon
# UACC-257 melanoma = system: UACC-257 melanoma
# OVCAR-4 ovarian = system: OVCAR-4 ovarian
# SW-620 colon = system: SW-620 colon
# SNB-75 CNS = system: SNB-75 CNS
# HOP-62 NSCLC = system: HOP-62 NSCLC
# MDA-MB-231 breast = system: MDA-MB-231 breast
Compound,TGI (NCI-H23 lung) [µM],TGI (MOLT-4 leukemia) [µM],TGI (SF-539 CNS) [µM],TGI (HT29 colon) [µM],TGI (UACC-257 melanoma) [µM],TGI (OVCAR-4 ovarian) [µM],TGI (SW-620 colon) [µM],TGI (SNB-75 CNS) [µM],TGI (HOP-62 NSCLC) [µM],GI50 (MOLT-4 leukemia) [µM],GI50 (SF-539 CNS) [µM],GI50 (HT29 colon) [µM],GI50 (UACC-257 melanoma) [µM],GI50 (SW-620 colon) [µM],GI50 (MDA-MB-231 breast) [µM],TGI (MDA-MB-231 breast) [µM],GI50 (HOP-62 NSCLC) [µM],GI50 (OVCAR-4 ovarian) [µM],GI50 (SNB-75 CNS) [µM],GI50 (NCI-H23 lung) [µM]
COc1cc2ccc1-c1cc(ccc1O)CC1c3cc4c(cc3CCN1C)Oc1c(OC)cc3c(c1O4)C(C2)N(C)CC3 (configuration not stated),3.9,4.22,3.27,3.27,3.23,3.72,3.31,3.52,3.65,,,,,,,,,,,
CC[C@H](Nc1nc(N)nc(N)c1Cl)c1nc2cccc(NCc3ccc(C(=O)NO)cc3)c2c(=O)n1-c1ccccc1,,16.6,3.06,5.27,4.92,,4.71,,4.04,1.47,1.64,2.01,1.94,1.63,1.55,3.65,1.67,,,
Cc1ncc(CO)c(CN)c1O,> 100,> 100,> 100,> 100,> 100,> 100,> 100,,> 100,,,,,,,> 100,,,,
COc1cnc2c(c1)C(=O)c1c-2n(CCCN2CCNCC2)c(=O)c2cc(Cl)ccc12,,,2.63,2.21,4.82,2.73,1.82,1.69,,,1.33,0.66,2.19,0.0856,,,,1.17,0.291,
CC(C)CNc1nc(N)[nH]c(=O)c1NC=O,> 100,> 100,> 100,> 100,> 100,> 100,> 100,> 100,> 100,,,,,,,> 100,,,,
Cc1c2ccnc(-c3ccccc3)c2cc2c1[nH]c1ccccc12,19.9,6.96,7,8.14,6.26,32.7,46.9,8.16,6.61,,,,,,,,,,,
Cn1cnc([N+](=O)[O-])c1SCC(=O)O,> 100,,,> 100,> 100,> 100,> 100,> 100,> 100,,,,,,,> 100,,,,
O=C(c1cc(Br)ccc1O)c1cc(Br)ccc1O,35.4,39,38.2,31.7,29.1,30.2,30.6,29.9,34.3,,,,,,,33.5,,,,
NCS(=O)(=O)O,> 100,> 100,52.6,> 100,> 100,> 100,> 100,> 100,> 100,,,,,,,> 100,,,,
C[n+]1cccc(/C=C/c2ccc3cccc(O)c3n2)c1,> 100,> 100,> 100,> 100,> 100,> 100,> 100,> 100,> 100,,,,,,,> 100,,,,
C[C@H]1CCC/C=C/[C@@H]2C[C@H](O)C[C@H]2[C@H](O)[C@@H](S(=O)CCN)CC(=O)O1 (some centres not stated),1.74,,,0.0378,> 100,,,> 25.1,> 58.9,0.0947,< 0.0176,< 0.0158,< 0.0234,0.0576,0.0234,0.0613,0.13,< 0.0273,< 0.0231,0.044
COc1cc2c(cc1OC)C(Cl)C(c1ccc(Cl)cc1)=C2Cl (configuration not stated),41.1,42.5,31.2,28.6,,,52,36.2,,,,,,,,,,,,
Cc1cc(=O)[nH]c(NN2C(Cl)C(=O)C2c2cccc([N+](=O)[O-])c2)n1 (configuration not stated),52.4,44.9,,49.9,> 100,57,> 100,> 100,> 100,,,,,,,,,,,
c1ccc2c[n+](CCCCCCCCCC[n+]3ccc4ccccc4c3)ccc2c1,> 10,,> 10,> 10,> 10,> 10,> 10,> 10,> 10,,,,,,,> 10,,,,
CC(C)(C)C1CCC2(CC1)CCN(CCCN1CCOCC1)CC2,> 100,> 65.4,> 51.1,> 34.2,31.1,> 100,> 59.3,> 52.4,> 57.8,,,,,,,> 100,,,,
CN(C)CCNC(=O)c1cccc2nc3c4ccccc4c4ccccc4c3nc12,3.41,4.96,3.18,3.01,10.6,3.24,6.59,8.85,34.2,,,,,,,3.32,,,,
O=C(O)c1ccccn1,> 100,> 100,> 100,> 100,> 100,> 100,> 100,> 100,> 100,,,,,,,> 100,,,,
CN(C)c1ccc(C2CC(=O)C(C#N)=C(c3ccccc3)NN2C)cc1 (configuration not stated),> 100,> 100,,24.5,> 100,> 100,> 100,7.59,62.5,,,,,,,,,,,
N=C(N)c1ccc(-c2ccc(-c3ccc(Cl)cn3)s2)cc1,,,3.01,,3.62,,,,,,1.63,,1.8,,1.58,3.02,,,,
CN(C)c1ccc2nc3c(C(=O)O)cc(=O)c(O)c-3oc2c1,33.6,51.8,69.3,> 100,32.3,> 100,> 100,60,> 100,,,,,,,> 100,,,,
CN(C)[C@@H]1C(=O)C(C(=O)NCNCCCC(=O)O)=C(O)[C@@]2(O)C(=O)C3=C(O)c4c(O)cccc4[C@@](C)(O)[C@H]3C[C@@H]12,> 100,> 100,> 100,> 100,> 100,> 100,> 100,,> 100,,,,,,,,,,,
O=C1c2ccccc2C(=O)c2c(NCCNC(=O)C3CCCN3)ccc(NCCNC(=O)C3CCCN3)c21 (configuration not stated),> 100,84.2,> 100,> 100,> 100,> 100,> 100,> 100,> 100,,,,,,,> 100,,,,
